Measurements from PubChem BioAssay AID1919005 (Molecular Pharmacology Branch, DTP, NCI, 2023).

System: 855422-203-R-J1-PDC complex spheroid growth
Experiment: Anticancer human tumor 855422-203-R-J1-PDC patient-derived bladder carcinoma cell line growth inhibition [AhR]
Conditions: for IC50: curve of first compound; for viability, T/C: stronger effect = lower value
Procedure, shortened: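 Agents were dosed in half-log steps down from roughly clinical Cmax, or from 10 microM where Cmax was unknown, alone and with AhR antagonists. Read-out: percent test/control growth of tumor spheroids containing HUVEC and MSC stromal cells.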

[1] = second compound 0.1 µM, first compound 0.0316 µM
[2] = second compound 0.1 µM, first compound 0.1 µM
[3] = second compound 0.1 µM, first compound 0.316 µM
[4] = second compound 0.1 µM, first compound 1 µM
[5] = second compound 0.1 µM, first compound 3.16 µM
[6] = second compound 0.1 µM, first compound 10 µM
[7] = second compound 0.316 µM, first compound 0.0316 µM
[8] = second compound 0.316 µM, first compound 0.1 µM
[9] = second compound 0.316 µM, first compound 0.316 µM
[10] = second compound 0.316 µM, first compound 1 µM
[11] = second compound 0.316 µM, first compound 3.16 µM
[12] = second compound 0.316 µM, first compound 10 µM
[13] = second compound 1 µM, first compound 0.0316 µM
[14] = second compound 1 µM, first compound 0.1 µM
[15] = second compound 1 µM, first compound 0.316 µM
[16] = second compound 1 µM, first compound 1 µM
[17] = second compound 1 µM, first compound 3.16 µM
[18] = second compound 1 µM, first compound 10 µM
[19] = second compound 3.16 µM, first compound 0.0316 µM
[20] = second compound 3.16 µM, first compound 0.1 µM
[21] = second compound 3.16 µM, first compound 0.316 µM
[22] = second compound 3.16 µM, first compound 1 µM
[23] = second compound 3.16 µM, first compound 3.16 µM
[24] = second compound 3.16 µM, first compound 10 µM
[25] = second compound 10 µM, first compound 0.0316 µM
[26] = second compound 10 µM, first compound 0.1 µM
[27] = second compound 10 µM, first compound 0.316 µM
[28] = second compound 10 µM, first compound 1 µM
[29] = second compound 10 µM, first compound 3.16 µM
[30] = second compound 10 µM, first compound 10 µM
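Further: spheroids exposed to agents for seven days before readout.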
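Wherever viability, T/C is given: percent of DMSO vehicle control luminescence viability.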

With `COc1cc(Nc2ncc3c(n2)-c2ccc(Cl)cc2C(c2c(F)cccc2OC)=NC3)ccc1C(=O)O` + Cc1cncc(-c2nc(NCCc3c[nH]c4ccccc34)c3ncn(C(C)C)c3n2)c1 the IC50 (second compound 0.1 µM) was > 10000 nM, the IC50 (second compound 0.316 µM) was > 10000 nM and the IC50 (second compound 1 µM) was 987 nM. The IC50 (second compound 3.16 µM) was 995 nM, the IC50 (second compound 10 µM) was < 31.6 nM and the viability, T/C [1] was 104%. For the same compound, the viability, T/C [2] was 101%, the viability, T/C [3] was 61.5% and the viability, T/C [4] was 55%. For the same compound, the viability, T/C [5] was 50.6%, the viability, T/C [6] was 45.4% and the viability, T/C [7] was 98.7%. The viability, T/C [8] was 94.8%, the viability, T/C [9] was 61.4% and the viability, T/C [10] was 52.4%. It also gave a viability, T/C [11] of 52.5%, a viability, T/C [12] of 50.7% and a viability, T/C [13] of 99%. It also gave a viability, T/C [14] of 90.5%, a viability, T/C [15] of 63.2% and a viability, T/C [16] of 49.3%. The viability, T/C [17] was 48.6%, the viability, T/C [18] was 48.2% and the viability, T/C [19] was 82.8%. It also gave a viability, T/C [20] of 75.9%, a viability, T/C [21] of 59.7% and a viability, T/C [22] of 48.6%. It also gave a viability, T/C [23] of 52.2%, a viability, T/C [24] of 44.8% and a viability, T/C [25] of 27.9%. The viability, T/C [26] was 26.7%, the viability, T/C [27] was 14.8% and the viability, T/C [28] was 11.4%. It also gave a viability, T/C [29] of 22.5% and a viability, T/C [30] of 26.4%.
In the case of `COc1cccc2c1C(=O)c1c(O)c3c(c(O)c1C2=O)CC(O)(C(=O)CO)CC3OC1CC(N)C(O)C(C)O1` (stereo not given) + CC(CO)NC(=O)c1cc(-c2ccc(Cl)cc2)nn(-c2cnn(C)c2)c1=O, the IC50 (second compound 0.1 µM) is reported as < 31.6 nM, the IC50 (second compound 0.316 µM) is reported as < 31.6 nM and the IC50 (second compound 1 µM) is reported as < 31.6 nM. For the same compound, the IC50 (second compound 3.16 µM) was < 31.6 nM, the IC50 (second compound 10 µM) was < 31.6 nM and the viability, T/C [1] was 34.3%. It also gave a viability, T/C [2] of 21.9%, a viability, T/C [3] of 4.3% and a viability, T/C [4] of 1.57%. The viability, T/C [5] was 1.7%, the viability, T/C [6] was 2.88% and the viability, T/C [7] was 31.6%. The viability, T/C [8] was 21.3%, the viability, T/C [9] was 3.51% and the viability, T/C [10] was 1.36%. For the same compound, the viability, T/C [11] was 1.02%, the viability, T/C [12] was 2.82% and the viability, T/C [13] was 37.7%. For the same compound, the viability, T/C [14] was 21.3%, the viability, T/C [15] was 3.4% and the viability, T/C [16] was 1.68%. The viability, T/C [17] was 0.81%, the viability, T/C [18] was 3.37% and the viability, T/C [19] was 32%. It also gave a viability, T/C [20] of 17.5%, a viability, T/C [21] of 2.92% and a viability, T/C [22] of 1.21%. The viability, T/C [23] was 0.84%, the viability, T/C [24] was 4.27% and the viability, T/C [25] was 32.9%. It also gave a viability, T/C [26] of 17.8%, a viability, T/C [27] of 2.64% and a viability, T/C [28] of 0.53%. For the same compound, the viability, T/C [29] was 0.94% and the viability, T/C [30] was 5.77%.
Compound `Nc1ccccc1NC(=O)c1ccc(CNC(=O)OCc2cccnc2)cc1` + Cc1ccccc1N=Nc1ccc(NC(=O)c2ccnn2C)c(C)c1 has an IC50 (second compound 0.1 µM) of 6310 nM, an IC50 (second compound 0.316 µM) of 6250 nM and an IC50 (second compound 1 µM) of 6860 nM. The IC50 (second compound 3.16 µM) was 6010 nM, the IC50 (second compound 10 µM) was 4290 nM and the viability, T/C [1] was 101%. It also gave a viability, T/C [2] of 106%, a viability, T/C [3] of 100% and a viability, T/C [4] of 107%. It also gave a viability, T/C [5] of 78.4%, a viability, T/C [6] of 31.1% and a viability, T/C [7] of 103%. It also gave a viability, T/C [8] of 101%, a viability, T/C [9] of 104% and a viability, T/C [10] of 107%. For the same compound, the viability, T/C [11] was 84%, the viability, T/C [12] was 26.5% and the viability, T/C [13] was 106%. It also gave a viability, T/C [14] of 105%, a viability, T/C [15] of 109% and a viability, T/C [16] of 111%. For the same compound, the viability, T/C [17] was 91.2%, the viability, T/C [18] was 29.8% and the viability, T/C [19] was 97.4%. For the same compound, the viability, T/C [20] was 92.7%, the viability, T/C [21] was 92.1% and the viability, T/C [22] was 98%. For the same compound, the viability, T/C [23] was 86.2%, the viability, T/C [24] was 21.1% and the viability, T/C [25] was 85.3%. The viability, T/C [26] was 84.3%, the viability, T/C [27] was 87.4% and the viability, T/C [28] was 86.3%. The viability, T/C [29] was 61.6% and the viability, T/C [30] was 18.2%.
`CC1COCCN1c1cc(-c2ccnn2C)c2ccnc(-c3ccn[nH]3)c2n1` (stereo not given) + Cc1ccccc1N=Nc1ccc(NC(=O)c2ccnn2C)c(C)c1 was tested, and the IC50 (second compound 0.1 µM) was 527 nM, the IC50 (second compound 0.316 µM) was 507 nM and the IC50 (second compound 1 µM) was 507 nM. For the same compound, the IC50 (second compound 3.16 µM) was 351 nM, the IC50 (second compound 10 µM) was 298 nM and the viability, T/C (second compound 0.1 µM, first compound 0.00316 µM) was 104%. The viability, T/C (second compound 0.1 µM, first compound 0.01 µM) was 99.4%, the viability, T/C [1] was 97.7% and the viability, T/C [2] was 98.4%. It also gave a viability, T/C [3] of 67.6%, a viability, T/C [4] of 27.8% and a viability, T/C (second compound 0.316 µM, first compound 0.00316 µM) of 101%. The viability, T/C (second compound 0.316 µM, first compound 0.01 µM) was 107%, the viability, T/C [7] was 97.5% and the viability, T/C [8] was 101%. It also gave a viability, T/C [9] of 68%, a viability, T/C [10] of 24.1% and a viability, T/C (second compound 1 µM, first compound 0.00316 µM) of 100%. For the same compound, the viability, T/C (second compound 1 µM, first compound 0.01 µM) was 106%, the viability, T/C [13] was 91% and the viability, T/C [14] was 97.8%. It also gave a viability, T/C [15] of 66%, a viability, T/C [16] of 26.9% and a viability, T/C (second compound 3.16 µM, first compound 0.00316 µM) of 88.6%. The viability, T/C (second compound 3.16 µM, first compound 0.01 µM) was 86.7%, the viability, T/C [19] was 87.3% and the viability, T/C [20] was 92.6%. The viability, T/C [21] was 52.7%, the viability, T/C [22] was 23% and the viability, T/C (second compound 10 µM, first compound 0.00316 µM) was 77.1%. The viability, T/C (second compound 10 µM, first compound 0.01 µM) was 83.5%, the viability, T/C [25] was 76.4% and the viability, T/C [26] was 73%. The viability, T/C [27] was 48.7% and the viability, T/C [28] was 20.9%.
Compound `O=C(C=Cn1cnc(-c2cc(C(F)(F)F)cc(C(F)(F)F)c2)n1)NNc1cnccn1` + CC(CO)NC(=O)c1cc(-c2ccc(Cl)cc2)nn(-c2cnn(C)c2)c1=O has an IC50 (second compound 0.1 µM) of 409 nM, an IC50 (second compound 0.316 µM) of 279 nM and an IC50 (second compound 1 µM) of 326 nM. The IC50 (second compound 3.16 µM) was 274 nM, the IC50 (second compound 10 µM) was 260 nM and the viability, T/C (second compound 0.1 µM, first compound 0.00949 µM) was 106%. For the same compound, the viability, T/C (second compound 0.1 µM, first compound 0.03 µM) was 124%, the viability, T/C (second compound 0.1 µM, first compound 0.0949 µM) was 141% and the viability, T/C (second compound 0.1 µM, first compound 0.3 µM) was 55.2%. The viability, T/C (second compound 0.1 µM, first compound 0.949 µM) was 40.1%, the viability, T/C (second compound 0.1 µM, first compound 3 µM) was 32.1% and the viability, T/C (second compound 0.316 µM, first compound 0.00949 µM) was 112%. The viability, T/C (second compound 0.316 µM, first compound 0.03 µM) was 125%, the viability, T/C (second compound 0.316 µM, first compound 0.0949 µM) was 149% and the viability, T/C (second compound 0.316 µM, first compound 0.3 µM) was 44.6%. It also gave a viability, T/C (second compound 0.316 µM, first compound 0.949 µM) of 36.8%, a viability, T/C (second compound 0.316 µM, first compound 3 µM) of 33% and a viability, T/C (second compound 1 µM, first compound 0.00949 µM) of 121%. It also gave a viability, T/C (second compound 1 µM, first compound 0.03 µM) of 136%, a viability, T/C (second compound 1 µM, first compound 0.0949 µM) of 159% and a viability, T/C (second compound 1 µM, first compound 0.3 µM) of 51.1%. For the same compound, the viability, T/C (second compound 1 µM, first compound 0.949 µM) was 37.8%, the viability, T/C (second compound 1 µM, first compound 3 µM) was 31.1% and the viability, T/C (second compound 3.16 µM, first compound 0.00949 µM) was 108%. For the same compound, the viability, T/C (second compound 3.16 µM, first compound 0.03 µM) was 123%, the viability, T/C (second compound 3.16 µM, first compound 0.0949 µM) was 152% and the viability, T/C (second compound 3.16 µM, first compound 0.3 µM) was 43.4%. For the same compound, the viability, T/C (second compound 3.16 µM, first compound 0.949 µM) was 41.1%, the viability, T/C (second compound 3.16 µM, first compound 3 µM) was 28.6% and the viability, T/C (second compound 10 µM, first compound 0.00949 µM) was 100%. For the same compound, the viability, T/C (second compound 10 µM, first compound 0.03 µM) was 134%, the viability, T/C (second compound 10 µM, first compound 0.0949 µM) was 144% and the viability, T/C (second compound 10 µM, first compound 0.3 µM) was 39.2%. The viability, T/C (second compound 10 µM, first compound 0.949 µM) was 33.6% and the viability, T/C (second compound 10 µM, first compound 3 µM) was 31.1%.
